Measured values from patent US20030171386A1, “Small molecules for the treatment of abnormal cell growth” (Pfizer Inc., priority 2001, published 2003).

Columns and labels:
[1] = target: T1, chimeric EGFR/erbB2 kinase (Homo sapiens, UniProt P04626); test: erbB2 receptor autophosphorylation, in vitro cell assay in transfected 3T3 cells; type: cell-based; conditions: intact 3T3 cells transfected with chimeric EGFR/erbB2 kinase; EGF-stimulated phosphotyrosine; read-out: Potency (IC50) for the erbB2 receptor
T1 construct: EGFR extracellular/erbB2 intracellular; expressed in transfected cells; host or cells: 3T3 cells; the other entry of the earlier key: EGFR (P00533, Epidermal growth factor receptor)
Procedure: The in vitro activity of small molecule compounds as erbB kinase inhibitors in intact cells may be determined by the following procedure. Cells, for example 3T3 cells transfected with human EGFR (Cohen et al. J. Virology 67:5303, 1993) or with chimeric EGFR/erbB2 kinase (EGFR extracellular/erbB2 intracellular, Fazioli et al. Mol. Cell. Biol. 11: 2040, 1991) are plated in 96-well plates at 12,000 cells per well in 100 μl medium (Dulbecco's […] (DMEM) with 5% fetal calf serum, 1% pen/streptomycin, 1% L-glutamine) and incubated at 37° C., 5% CO2 Test compounds are solubilized in DMSO at a concentration of 10 mM, and tested at final concentrations of 0, 0.3 μM, 1 μM, […], 0.1 μM and 10 μM in the medium. The cells are incubated at 37° C. for 2 h. EGF (40 ng/ml final) is added to each well and cells incubate at room temperature for 15 min followed by aspiration of medium, then 100 μl/well cold fixative (50% ethanol/50% acetone containing 200 micromolar sodium orthovanadate) is added. The plate is incubated for 30 min at room temperature followed by washing with wash buffer (0.5% Tween 20 in phosphate buffered saline). Blocking buffer (3% bovine serum albumin, 0.05% Tween 20, 200 μM sodium orthovanadate in phosphate buffered saline, 100 μl/well) is added followed by incubation for 2 hours at room temperature followed by two washes with wash buffer. PY54 monoclonal anti-phosphotyrosine antibody directly conjugated to horseradish peroxidase (50 μl/well, 1 μg/ml in blocking buffer) or blocked conjugate (1 μg/ml with 1 mM phosphotyrosine in blocking buffer, to check specificity) is added and the plates incubated for 2 hours at room temperature. The plate wells are then washed 4 times with wash buffer. The colorimetric signal is developed by addition of TMB Microwell Peroxidase Substrate (Kirkegaard and Perry, Gaithersburg, Md.), 50 μl per well, and stopped by the addition of 0.09 M sulfuric acid, 50 μl per well. Absorbance at 450 nm represents phosphotyrosine content of proteins. The increase in signal in EGF-treated cells over control (non-EGF treated) represents the activity of the EGFR or EGFR/chimera respectively. The potency of an inhibitor is determined by measurement of the concentration of compound needed to inhibit the increase in phosphotyrosine by 50% (IC50) in each cell line. The selectivity of the compounds for erbB2 vs. EGFR is determined by comparison of the IC50 for the EGFR transfectant vs. that for the erbB2/EGFR chimera transfectant. Thus, for example, a compound with an IC50 of 100 nM for the EGFR transfectant and 10 nM for the erbB2/EGFR chimera transfectant is considered 10-fold selective for erbB2 kinase.
(§1) The IC50 values for the inhibition of erbB1 receptor autophosphorylation and erbB2 receptor autophophorylation were determined using the in vitro cell assays described above.

human EGFR = target: T2, human EGFR (Homo sapiens, UniProt P00533); test: erbB1 receptor autophosphorylation, in vitro cell assay in transfected 3T3 cells, used for the erbB2 versus erbB1 selectivity ratio; type: cell-based; conditions: comparison of IC50 for EGFR transfectant vs. erbB2/EGFR chimera transfectant
T2 construct: expressed in transfected cells; host or cells: 3T3 cells
Procedure: The in vitro activity of small molecule compounds as erbB kinase inhibitors in intact cells may be determined by the following procedure. […] The cells are incubated at 37° C. for 2 h. EGF (40 ng/ml final) is added to each well and cells incubate at room temperature for 15 min followed by aspiration of medium, then 100 μl/well cold fixative (50% ethanol/50% acetone containing 200 micromolar sodium orthovanadate) is added. The plate is incubated for 30 min at room temperature followed by washing with wash buffer (0.5% Tween 20 in phosphate buffered saline). Blocking buffer (3% bovine serum albumin, 0.05% Tween 20, 200 μM sodium orthovanadate in phosphate buffered saline, 100 μl/well) is added followed by incubation for 2 hours at room temperature followed by two washes with wash buffer. PY54 monoclonal anti-phosphotyrosine antibody directly conjugated to horseradish peroxidase (50 μl/well, 1 μg/ml in blocking buffer) or blocked conjugate (1 μg/ml with 1 mM phosphotyrosine in blocking buffer, to check specificity) is added and the plates incubated for 2 hours at room temperature. The plate wells are then washed 4 times with wash buffer. The colorimetric signal is developed by addition of TMB Microwell Peroxidase Substrate (Kirkegaard and Perry, Gaithersburg, Md.), 50 μl per well, and stopped by the addition of 0.09 M sulfuric acid, 50 μl per well. […] The increase in signal in EGF-treated cells over control (non-EGF treated) represents the activity of the EGFR or EGFR/chimera respectively. […] The selectivity of the compounds for erbB2 vs. EGFR is determined by comparison of the IC50 for the EGFR transfectant vs. that for the erbB2/EGFR chimera transfectant.
as §1

[2] = clinical trials, patients; cited from earlier work
[3] = tested on: transplanted human mammary carcinoma, which expresses epidermal growth factor receptor tyrosine kinase (EGFR); conditions: EGFR-expressing human mammary carcinoma in athymic nude mice; cited from earlier work
[4] = tested on: another carcinoma, which does not express the EGF receptor; conditions: carcinoma not expressing the EGF receptor; cited from earlier work

T2 sequence (P00533 25-1210): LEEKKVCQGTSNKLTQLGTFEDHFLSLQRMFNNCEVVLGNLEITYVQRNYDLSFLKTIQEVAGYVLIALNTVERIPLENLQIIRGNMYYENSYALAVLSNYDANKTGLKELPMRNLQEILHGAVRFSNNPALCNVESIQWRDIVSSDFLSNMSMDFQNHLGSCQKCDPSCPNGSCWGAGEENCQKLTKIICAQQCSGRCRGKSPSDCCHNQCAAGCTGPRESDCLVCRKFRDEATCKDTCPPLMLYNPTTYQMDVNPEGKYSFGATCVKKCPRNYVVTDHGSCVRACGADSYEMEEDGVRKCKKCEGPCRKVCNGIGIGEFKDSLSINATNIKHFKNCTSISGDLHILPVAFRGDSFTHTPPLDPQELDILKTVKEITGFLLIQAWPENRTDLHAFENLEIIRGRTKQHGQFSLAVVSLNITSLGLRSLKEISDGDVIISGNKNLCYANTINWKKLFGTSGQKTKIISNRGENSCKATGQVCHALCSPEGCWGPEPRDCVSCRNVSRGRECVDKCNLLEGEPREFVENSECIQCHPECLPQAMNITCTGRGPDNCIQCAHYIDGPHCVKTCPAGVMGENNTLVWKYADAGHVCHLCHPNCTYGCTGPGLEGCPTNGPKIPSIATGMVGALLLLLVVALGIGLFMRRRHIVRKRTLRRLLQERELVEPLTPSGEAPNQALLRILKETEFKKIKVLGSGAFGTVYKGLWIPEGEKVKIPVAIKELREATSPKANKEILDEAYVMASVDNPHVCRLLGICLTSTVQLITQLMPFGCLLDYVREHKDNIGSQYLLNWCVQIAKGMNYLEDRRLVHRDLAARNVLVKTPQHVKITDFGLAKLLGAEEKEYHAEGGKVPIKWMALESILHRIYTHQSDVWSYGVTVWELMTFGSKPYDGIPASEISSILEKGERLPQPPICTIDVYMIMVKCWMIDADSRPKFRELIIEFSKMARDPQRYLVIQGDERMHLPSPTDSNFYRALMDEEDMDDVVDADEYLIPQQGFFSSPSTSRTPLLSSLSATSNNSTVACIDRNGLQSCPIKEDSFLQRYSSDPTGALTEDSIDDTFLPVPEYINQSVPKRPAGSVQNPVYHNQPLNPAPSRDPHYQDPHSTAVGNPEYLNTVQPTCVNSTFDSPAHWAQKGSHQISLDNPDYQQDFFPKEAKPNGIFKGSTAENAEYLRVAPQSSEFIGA
T1 sequence (P04626 720-1255 limits assumed, change not shown): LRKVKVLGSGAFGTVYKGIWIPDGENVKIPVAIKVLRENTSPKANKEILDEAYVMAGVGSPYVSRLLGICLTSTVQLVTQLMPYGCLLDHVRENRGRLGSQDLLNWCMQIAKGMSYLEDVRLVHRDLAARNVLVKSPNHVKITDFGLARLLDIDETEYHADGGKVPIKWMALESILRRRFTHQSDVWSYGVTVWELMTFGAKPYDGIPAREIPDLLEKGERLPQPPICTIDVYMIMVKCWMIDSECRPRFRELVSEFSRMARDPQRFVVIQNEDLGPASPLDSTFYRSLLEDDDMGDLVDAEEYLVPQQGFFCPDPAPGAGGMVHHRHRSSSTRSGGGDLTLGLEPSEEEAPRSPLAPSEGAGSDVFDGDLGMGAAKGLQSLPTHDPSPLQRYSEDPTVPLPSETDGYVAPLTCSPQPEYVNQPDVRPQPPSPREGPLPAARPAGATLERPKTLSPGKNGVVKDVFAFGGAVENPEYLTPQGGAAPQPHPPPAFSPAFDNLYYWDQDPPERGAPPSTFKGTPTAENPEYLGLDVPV

Row | SMILES | IC50 [1] [nM] | erbB2/erbB1 ratio (selectivity) (human EGFR) | dermal toxicity (rash) [2] | tumor growth [3] | tumor growth [4]
1 | Cc1ccc(Oc2ccc(Nc3ncnc4ccc(/C=C/CNC(=O)c5cc(C)on5)cc34)cc2C)cn1 [Example 6, E-5-Methyl-isoxazole-3-carboxylic acid (3-{4-[3-methyl-4-(6-methyl-pyridin-3-yloxy)-phenylamino]-quinazolin-6-yl}-allyl)-amide] | < 20 | 437 |  |  | 
2 | CC(=O)NC/C=C/c1ccc2ncnc(Nc3ccc(Oc4ccc(C)nc4)c(Cl)c3)c2c1 [Example 5, E-N-(3-{4-[3-Chloro-4-(6-methyl-pyridin-3-yloxy)-phenylamino]-quinazolin-6-yl}-allyl)-acetamide] | 21 to 50 | 108 |  |  | 
3 | COCC(=O)NC/C=C/c1ccc2ncnc(Nc3ccc(Oc4ccc(C)nc4)c(C)c3)c2c1 [Example 9, E-2-Methoxy-N-(3-{4-[3-methyl-4-(6-methyl-pyridin-3-yloxy)-phenylamino]-quinazolin-6-yl}-allyl)-acetamide] | 21 to 50 | 116 |  |  | 
4 | COc1cc2ncnc(Nc3ccc(F)c(Cl)c3)c2cc1OCCCN1CCOCC1 [ZD1839] |  |  | this adverse event was observed |  | 
5 | C=CC(=O)Nc1cc2c(Nc3ccc(F)c(Cl)c3)ncnc2cc1OCCCN1CCOCC1 [CI-1033] |  |  | dermal toxicity in the form of a rash occurs |  | 
6 | CCOc1cc2ncc(C#N)c(Nc3ccc(F)c(Cl)c3)c2cc1NC(=O)/C=C/CN(C)C [EKB-569] |  |  | dermal toxicity in the form of a rash occurs |  | 
7 | C#Cc1cccc(Nc2ncnc3cc(OCCOC)c(OCCOC)cc23)c1 [CP-358,774] |  |  | this adverse event was observed |  | 
8 | O=CN/C=C/c1cc(O)ccc1O [erbstatin] |  |  |  | selectively attenuates the growth | without effect on the growth
9 | Cc1ccc(Oc2ccc(Nc3ncnc4ccc(/C=C/CNC(=O)C5CC5)cc34)cc2Cl)cn1 [Example 4, E-Cyclopropanecarboxylic acid (3-{4-[3-chloro-4-(6-methyl-pyridin-3-yloxy)-phenylamino]-quinazolin-6-yl}-allyl)-amide] | 21 to 50 | 142 |  |  | 

Now from value to compound, other results behind:

Row | IC50 [1] [nM] | erbB2/erbB1 ratio (selectivity) (human EGFR) | SMILES | dermal toxicity (rash) [2] | tumor growth [3] | tumor growth [4]
10 | < 20 | 101 | CC(=O)C(=O)NCC#Cc1ccc2ncnc(Nc3cnc(Oc4ccccc4)c(C)c3)c2c1 [Example 1, N-{3-[4-(5-Methyl-6-phenoxy-pyridin-3-ylamino)-quinazolin-6-yl]-prop-2-ynyl}-2-oxo-propionamide] |  |  | 
11 | 21 to 50 | 112 | CCNC(=O)NCC#Cc1ccc2ncnc(Nc3ccc(Oc4cccnc4)c(C)c3)c2c1 [Example 10, 1-Ethyl-3-(3-{4-[3-methyl-4-(pyridin-3-yloxy)-phenylamino]-quinazolin-6-yl}-prop-2-ynyl)-urea] |  |  | 
12 | 21 to 50 | 103 | COCC(=O)NCC#Cc1ccc2ncnc(Nc3ccc(Oc4cccc(OC)c4)c(C)c3)c2c1 [Example 3, 2-Methoxy-N-(3-{4-[4-(3-methoxy-phenoxy)-3-methyl-phenylamino]-quinazolin-6-yl}-prop-2-ynyl)-acetamide] |  |  | 
13 | 21 to 50 | 216 | Cc1ccc(Oc2ccc(Nc3ncnc4ccc(C#CCNC(=O)c5cc(C)no5)cc34)cc2C)cn1 [Example 16, 3-Methyl-isoxazole-5-carboxylic acid (3-{4-[3-methyl-4-(6-methyl-pyridin-3-yloxy)-phenylamino]-quinazolin-6-yl}-prop-2-ynyl)-amide] |  |  | 
14 | 51 to 100 | 140 | COC(=O)NCC#Cc1ccc2ncnc(Nc3ccc(Oc4cccnc4)c(C)c3)c2c1 [Example 15, (3-{4-[3-Methyl-4-(pyridin-3-yloxy)-phenylamino]-quinazolin-6-yl}-prop-2-ynyl)-carbamic acid methyl ester] |  |  | 
15 | 21 to 50 | 658 | Cc1cc(Nc2ncnc3ccc(/C=C/CNC(=O)C4CC4)cc23)ccc1Oc1cccnc1 [Example 2, E-Cyclopropanecarboxylic acid (3-{4-[3-methyl-4-(pyridin-3-yloxy)-phenylamino]-quinazolin-6-yl}-allyl)-amide] |  |  | 
16 | 21 to 50 | 1133 | COC(=O)NC/C=C/c1ccc2ncnc(Nc3ccc(Oc4cccnc4)c(C)c3)c2c1 [Example 7, E-(3-{4-[3-Methyl-4-(pyridin-3-yloxy)-phenylamino]-quinazolin-6-yl}-allyl)-carbamic acid methyl ester] |  |  | 
17 | 51 to 100 | 308 | COC1CCN(C(=O)NC(C)(C)C#Cc2ccc3ncnc(Nc4ccc(Oc5ccc(C)nc5)c(C)c4)c3c2)C1 (centres unmarked) [Example 8, 3-Methoxy-pyrrolidine-1-carboxylic acid (1,1-dimethyl-3-{4-[3-methyl-4-(6-methyl-pyridin-3-yloxy)-phenylamino]-quinazolin-6-yl}-prop-2-ynyl)-amide] |  |  | 
18 | 21 to 50 | 196 | Cc1cc(Nc2ncnc3ccc(C#CC4CCNCC4)cc23)ccc1Oc1cccnc1 [Example 14, [3-Methyl-4-(pyridin-3-yloxy)-phenyl]-(6-piperidin-4-ylethynyl-quinazolin-4-yl)-amine] |  |  | 
19 | 21 to 50 | 122 | Cc1ccc(Oc2ccc(Nc3ncnc4ccc(/C=C/CNC(=O)C5CC5)cc34)cc2C)cn1 [Example 11, E-Cyclopropanecarboxylic acid (3-{4-[3-methyl-4-(6-methyl-pyridin-3-yloxy)-phenylamino]-quinazolin-6-yl}-allyl)-amide] |  |  | 
20 | < 20 | 182 | Cc1cc(Nc2ncnc3ccc(C#CCNC(=O)CN(C)C)cc23)ccc1Oc1cccnc1 [Example 13, 2-Dimethylamino-N-(3-{4-[3-methyl-4-(pyridin-3-yloxy)-phenylamino]-quinazolin-6-yl}-prop-2-ynyl)-acetamide] |  |  | 
21 | 21 to 50 | 121 | CCNC(=O)NCC#Cc1ccc2ncnc(Nc3ccc(Oc4cccnc4)c(Cl)c3)c2c1 [Example 12, 1-(3-{4-[3-Chloro-4-(pyridin-3-yloxy)-phenylamino]-quinazolin-6-yl}-prop-2-ynyl)-3-ethyl-urea] |  |  | 
